Data published in patent publication US20090258381A1, “Methods for Determining the Cleavability of Substrates” (priority 2005, published 2009).
One block for each substance: values may come before it.

Assays:
chymotrypsin = experiment: Inhibition of enzymatic conversion of GVPFGP by chymotrypsin; type: biochemical; conditions: degradation of GVPFGP by chymotrypsin; geometric mean and standard deviation of a quadruplicate measurement; read-out: inhibition constant
Protocol: (§1) Inhibition constants were measured by carrying out two parallel enzyme dilutions in each case. One enzyme dilution was carried out in the presence, and the other enzyme dilution in the absence, of the protease inhibitor aprotinin. […] The peptide chosen for the trypsin enzyme had the amino acid sequence GPARLA (number 42 from example 1) and the peptide chosen for the chymotrypsin enzyme had the sequence GVPFGP (number 43 from example 1). […] Then, to carry out the proteolytic cleavage in the presence of an inhibitor, 7.5 μl of an aprotinin solution (1 μg/ml for trypsin and 1 mg/ml for chymotrypsin) were put into the first well, and 5 μl of the aprotinin solution (1 μg/ml for trypsin and 1 mg/ml for chymotrypsin) were put into each of the next 10 wells. […] No enzyme solution was put in the last peptide-containing well.
(§2) The inhibition constant of aprotinin can be calculated by comparing the catalytic efficiency (kcat/KM) in the presence and in the absence of aprotinin. kcat/KM values are calculated according to equation (6) and the relationship obtained (equation (17)):
(§3) (kcat/KM)0/(kcat/KM)=1+[I]total/Ki

trypsin [1] = experiment: Inhibition of enzymatic conversion of GPARLA by trypsin; type: biochemical; conditions: degradation of substrate GPARLA by trypsin; geometric mean and standard deviation of a quadruplicate measurement; read-out: inhibition constant
Protocol: as §1, §2, §3

[2] = Half-lives of peptides in murine intestinal fluid (intestinal enzyme solution); conditions: relates to undiluted murine intestinal fluid, 90 min incubation in dilutions, 37° C.
Protocol: Anesthetized female Balb/c mice were sacrificed by cervical dislocation and their abdominal wall was opened. The small bowel was clamped with a hemostat behind the stomach outlet (proximal end) and severed from the stomach. The small bowel was exposed and clamped with a second hemostat near the posterior (distal) end. The bowel was severed a second time behind this point.
The subsequent preparation steps to obtain the digestive secretions were performed on an ice-cooled surface. The small bowel closed on both sides was agitated in ice-cold simulated intestinal fluid (SIF; 8 mM phosphate, pH 7.2, with 4.6 mM K^+, 111.3 mM Na^+, 101.5 mM Cl) according to Lockwood and Randall (1949), which was intended to imitate as accurately as possible the physiological conditions of the small bowel in terms of ion concentrations, in order to remove external contaminants and keep it moist. To obtain the digestive secretions present in the small bowel, the distal end of the bowel was suspended in a reaction vessel and the hemostat attached on this side was removed. A lateral cut was then made at the proximal end of the bowel so that a syringe provided with a button cannula could be introduced into the bowel which was held without tension. The bowel contents were washed out in three steps. The washing solutions were successively injected slowly into the bowel and collected at the lower end of the bowel separately in three reaction vessels. Firstly, the bowel was rinsed with a volume of 6 ml of perfluorohexane, an inert liquid which is immiscible with water, and the perfluorohexane was driven out with 4 ml of air. Then a mixture of 2.25 ml of perfluorohexane and 0.25 ml of SIF which contained the nonphysiological ions Li^+ and Cs^+, was used for washing in order to be able subsequently to determine the dilution by spectroscopic methods. […] In a third washing step, 5 ml of SIF without tracer were injected. Solid constituents of the bowel contents and the perfluorohexane were separated by centrifugation from the aqueous phase, in which the digestive enzymes were present. An inductively coupled plasma mass spectrometry (ICP-MS) was used to determine the concentrations of Li^+ and Cs^+ in the intestinal enzyme solution, and the dilution factor was calculated taking the volume of the washing buffer into account. The dilution of the third lavage was ascertained via endogenous markers of intestinal secretion (e.g. enzymic activities, immunoglobulins), in comparison with the first two intestinal enzyme solutions. The enzyme solutions were stored after freezing with liquid nitrogen at −70° C.
On a polypropylene microtiter plate having the same format as the coated polystyrene microtiter plate (see example 4), 7.5 μl of peptide solution were introduced into the first well of a row, and 5 μl of the peptide solution were introduced into each of the next 10 wells. The last well remained empty and was intended to serve as background correction. Then, simulated intestinal fluid (SIF) with the addition of 0.005% Tween 20 and 1 mM CaCl (SIFT-CaCl) was put in all the wells. The well with 7.5 μl of peptide solution received 60 μl of SIFT-CaCl, and the wells with 5 μl of peptide solution each received 45 μl of SIFT-CaCl. The empty well for the background correction received 50 μl of SIFT-CaCl. The enzymatic reaction was then started by adding 7.5 μl of a dilution of an intestinal enzyme solution (obtained as in example 2) to the well with 7.5 μl of peptide solution and 60 μl of SIFT-CaCl. 25 μl of this mixture were immediately pipetted into the next well and mixed, and this step was repeated to result in a serial 1:3 dilution of the intestinal enzyme solution over a total of 10 wells. No enzyme solution was put into the last peptide-containing well. Each well thus contained a volume of 50 μl after the serial dilution.

trypsin [3] = conditions: cleaved with trypsin; FRET-based methods (Grahn et al., 1998); cited from earlier work

- Ki (chymotrypsin): 480 nM
- Ki (trypsin [1]): 1 nM
Substance: aprotinin

Substance: KLPGFGDSIEAQCGTS
- t1/2 ([2]; 16-mer peptides): 6.4211 s

Substance: FGDSIEAQCGTSVNVH
- t1/2 ([2]; 16-mer peptides): 1.3951 s

Substance: PGFGDSIEAQCGTSVN
- t1/2 ([2]; 16-mer peptides): 5.0348 s

Substance: VVGSAEAGVD
- t1/2 ([2]; 10-mer peptides): 4.0618 s

Substance: GSAEAGVDAA
- t1/2 ([2]; 10-mer peptides): 3.1271 s

Substance: FDKLPGFGDSIEAQCG
- t1/2 ([2]; 16-mer peptides): 5.6930 s

Substance: GPARLAIG [GPARLAIG variant of the trypsin substrate, measured with FRET-based methods (Grahn et al., 1998)]
- catalytic efficiency (trypsin [3]): 1.2e+06 M⁻¹ s⁻¹
